# Test results published in ChEMBL document CHEMBL1201862, “PubChem BioAssay data set” (2004).
# Activity calls are given as the source filed them.
# Key:
# [1] = loss of viability in HepG2 cells – cell-based, CellTiter-Glo, cherry-picked, cytotoxicity control for Shn3 inhibitor project, dose response (AID 624134); assay type: functional
# [2] = HIV-1 AD8 envelope cell-cell fusion blockers – cherry-pick, dose response (AID 652062); assay type: functional, cell-based;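 also: luciferase signal from cell-cell fusion driven by HIV-1 clade B AD8 Env; potency is for inhibitors of fusion seen as a drop in luminescence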
# [3] = reduction of Shn3 3'UTR-driven luciferase in osteoblasts – cell-based, Clone20 osteoblasts, firefly luciferase, cherry-picked, dose response (AID 624132); assay type: functional;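 also: firefly luciferase luminescence from reporter carrying the Shn3 3'UTR in osteoblasts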
# [4] = off-target signal loss in HeLa-CEM21 co-culture – HeLa F-luc CTL cells, cherry-picked, counter-screen for HIV-1 Env fusion inhibitor project, dose response (AID 652040); assay type: functional, cell-based;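 also: potency for signal decrease marking cytotoxic or nonspecific inhibition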
# [5] = non-specific 3'UTR reporter inhibition in Clone20-Shn3RL – cell-based, Renilla luciferase, cherry-picked, counter-screen for Shn3 inhibitor project, dose response (AID 624133); assay type: functional
# INS1 = assay: INS-1E survival protection against cytokine death – cell-based, luminescence, retest, dose response (AID 449756); assay type: functional; settings: Rattus norvegicus;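 also: cell death triggered by IL-1 beta plus TNF-alpha plus IFN-gamma mixture; protective hits raise ATP signal compared with cytokine alone wells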
# [6] = viability loss in CEM21 cells – cell-based, plate reader, dry powder, cytotoxicity control, dose response (AID 687026); assay type: functional
# Protein Wnt-3a = Protein Wnt-3a (Mus musculus, UniProt P27467); assay: antagonism of Wnt3a pathway luciferase reporter – Wnt-LIGHT cells, luminescence, selectivity assay for Gli-SUFU antagonist project, dose response (AID 651570); assay type: functional; settings: read-out: IC50_Mean;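 also: Wnt-LIGHT reporter cells stimulated with conditioned medium from Wnt3a-producing cells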
# [7] = blockers of HIV-1 envelope-mediated cell-cell fusion – cherry-pick, dose response (AID 652057); assay type: functional, cell-based
# Protein RecA = molecular target: T1, Protein RecA (Mycobacterium tuberculosis, UniProt P9WHJ3); assay: Fluorescence Cell-Free Homogeneous Dose Retest to Identify Inhibitors of RecA-Intein Splicing Activity. [Related pubchem assays (depositor defined):AID2097, AID2223, AID489010, AID492950]; assay type: functional
# T1 sequence (P9WHJ3 whole entry): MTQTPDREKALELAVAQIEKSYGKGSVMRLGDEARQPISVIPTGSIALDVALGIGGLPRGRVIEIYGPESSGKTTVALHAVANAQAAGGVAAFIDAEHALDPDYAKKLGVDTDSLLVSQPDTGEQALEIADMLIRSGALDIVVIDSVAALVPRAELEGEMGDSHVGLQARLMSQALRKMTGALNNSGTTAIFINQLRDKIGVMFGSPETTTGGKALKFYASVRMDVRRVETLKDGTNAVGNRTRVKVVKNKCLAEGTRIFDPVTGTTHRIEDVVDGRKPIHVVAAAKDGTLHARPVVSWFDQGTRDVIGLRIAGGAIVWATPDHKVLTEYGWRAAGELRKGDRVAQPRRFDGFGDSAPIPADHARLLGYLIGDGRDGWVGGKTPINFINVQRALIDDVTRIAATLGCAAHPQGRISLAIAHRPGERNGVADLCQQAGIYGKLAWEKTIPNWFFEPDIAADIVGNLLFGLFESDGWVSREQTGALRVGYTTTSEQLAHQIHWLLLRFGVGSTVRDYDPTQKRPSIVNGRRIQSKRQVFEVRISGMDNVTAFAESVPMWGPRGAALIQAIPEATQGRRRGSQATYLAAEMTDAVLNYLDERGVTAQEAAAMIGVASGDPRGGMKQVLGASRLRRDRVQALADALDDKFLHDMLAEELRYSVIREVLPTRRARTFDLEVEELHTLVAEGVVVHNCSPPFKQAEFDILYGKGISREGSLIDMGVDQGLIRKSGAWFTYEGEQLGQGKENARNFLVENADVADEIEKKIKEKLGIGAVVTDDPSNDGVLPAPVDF
# [8] = molecular target: T2, Replicative DNA helicase DnaB (Mycobacterium tuberculosis, UniProt P9WMR3); assay: DnaB intein splicing inhibitors, dose response, biochemical, cell-free fluorescence (AID 449749); assay type: functional
# T2 sequence (P9WMR3 whole entry): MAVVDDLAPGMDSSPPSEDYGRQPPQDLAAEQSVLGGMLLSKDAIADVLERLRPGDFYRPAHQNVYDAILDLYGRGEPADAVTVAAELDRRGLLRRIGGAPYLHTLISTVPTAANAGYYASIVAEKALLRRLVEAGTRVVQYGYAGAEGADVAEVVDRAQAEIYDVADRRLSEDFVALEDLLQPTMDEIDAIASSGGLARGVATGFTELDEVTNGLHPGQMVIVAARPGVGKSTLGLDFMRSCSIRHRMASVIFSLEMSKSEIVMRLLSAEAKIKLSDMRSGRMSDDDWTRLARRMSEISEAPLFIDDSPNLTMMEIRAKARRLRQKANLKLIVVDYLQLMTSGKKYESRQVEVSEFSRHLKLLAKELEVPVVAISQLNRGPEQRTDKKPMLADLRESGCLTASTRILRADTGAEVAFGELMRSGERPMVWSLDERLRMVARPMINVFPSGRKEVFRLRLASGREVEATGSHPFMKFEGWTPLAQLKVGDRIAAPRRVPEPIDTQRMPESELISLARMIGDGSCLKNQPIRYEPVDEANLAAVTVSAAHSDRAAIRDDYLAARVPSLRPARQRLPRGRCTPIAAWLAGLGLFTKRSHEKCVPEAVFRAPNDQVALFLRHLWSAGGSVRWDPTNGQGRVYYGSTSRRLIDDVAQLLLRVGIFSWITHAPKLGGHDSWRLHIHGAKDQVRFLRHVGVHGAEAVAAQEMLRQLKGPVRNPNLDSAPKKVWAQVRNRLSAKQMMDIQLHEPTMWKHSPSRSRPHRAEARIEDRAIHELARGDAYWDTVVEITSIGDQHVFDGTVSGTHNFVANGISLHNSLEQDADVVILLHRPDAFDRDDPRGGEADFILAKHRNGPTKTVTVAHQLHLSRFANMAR
# Vero = assay: viability of Vero cells under compound – cytotoxicity control for flavivirus capping enzyme inhibitors (AID 588742); assay type: functional; settings: Chlorocebus sabaeus
# [9] = molecular target: T3, Mannose-6-phosphate isomerase (Homo sapiens, UniProt P34949); assay: MPI inhibition at elevated mannose 6-phosphate – biochemical, fluorescence intensity, high mannose 6-phosphate, primary screen (AID 1220)
# T3 sequence (P34949 whole entry): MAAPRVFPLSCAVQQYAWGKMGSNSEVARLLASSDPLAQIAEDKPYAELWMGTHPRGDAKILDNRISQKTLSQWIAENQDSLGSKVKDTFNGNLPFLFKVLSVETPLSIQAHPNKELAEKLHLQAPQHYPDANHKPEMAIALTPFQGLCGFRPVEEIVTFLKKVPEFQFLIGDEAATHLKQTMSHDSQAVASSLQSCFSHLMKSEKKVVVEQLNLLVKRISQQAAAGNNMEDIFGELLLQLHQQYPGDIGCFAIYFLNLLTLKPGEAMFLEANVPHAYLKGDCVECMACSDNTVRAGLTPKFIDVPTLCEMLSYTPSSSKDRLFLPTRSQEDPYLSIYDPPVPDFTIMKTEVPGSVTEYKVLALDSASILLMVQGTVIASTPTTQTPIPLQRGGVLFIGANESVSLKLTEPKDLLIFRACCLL
# [10] = molecular target: Fructose-bisphosphate aldolase (Mycobacterium tuberculosis, UniProt P9WQA3); assay: Fluorescence-based biochemical high throughput dose response assay for inhibitors of the fructose-bisphosphate aldolase (FBA) of M. tuberculosis.; assay type: functional
# Beta-galactosidase = Beta-galactosidase (Escherichia coli, UniProt Q8VNN2); assay: Dose response counterscreen for EBI2 assay utilizing the enzyme, b-galactosidase.; assay type: functional
# cells [11] = assay type: functional, cell-based
# [12] = molecular target: T4, Nuclear receptor subfamily 0 group B member 1 (Homo sapiens, UniProt P51843); assay type: functional, cell-based;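 also: HEK293T cells transfected with SF-1 and DAX-1 plus StAR promoter luciferase reporter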
# T4 sequence (P51843 whole entry): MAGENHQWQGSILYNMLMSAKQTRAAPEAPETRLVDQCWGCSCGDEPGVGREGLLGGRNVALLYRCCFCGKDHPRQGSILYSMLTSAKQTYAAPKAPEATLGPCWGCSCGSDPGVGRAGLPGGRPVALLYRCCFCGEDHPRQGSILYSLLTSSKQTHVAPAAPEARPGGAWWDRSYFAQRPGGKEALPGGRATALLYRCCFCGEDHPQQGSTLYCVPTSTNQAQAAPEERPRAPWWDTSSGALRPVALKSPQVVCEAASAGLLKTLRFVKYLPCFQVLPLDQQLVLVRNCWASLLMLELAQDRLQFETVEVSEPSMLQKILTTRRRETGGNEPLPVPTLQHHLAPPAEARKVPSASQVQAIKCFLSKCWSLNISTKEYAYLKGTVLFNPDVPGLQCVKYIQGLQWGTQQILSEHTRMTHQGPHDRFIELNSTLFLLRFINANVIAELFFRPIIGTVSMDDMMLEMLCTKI
# [13] = Late stage assay provider results from the probe development effort to identify selective inhibitors of heat shock protein 90 (HSP90): Absorbance-based cell proliferation assay in SKBR3 cells.; assay type: functional; settings: SK-BR-3
# [14] = Late stage assay provider results from the probe development effort to identify selective inhibitors of heat shock protein 90 (HSP90): Absorbance-based cell proliferation assay in MCF7 cells.; assay type: functional
# [15] = viability loss in HepG2 hepatoma cells – cell-based, ATP luminescence, cherry-pick, activator set 2, cytotoxicity control, dose response (AID 1053143); assay type: functional
# cells [16] = assay type: functional, cell-based; remark: listed apart in the source
# cells [17] = assay type: functional, cell-based; remark: listed apart in the source
# [18] = LMP1-induced NF-kB luciferase signal inhibition – cell-based, EBV LMP1, dry powder, set 2, dose response (AID 624361); assay type: functional
# [19] = inhibitors of EBV LMP1 NF-kappaB signaling – cell-based, luciferase reporter, luminescence, dry powder, set 2, dose response (AID 624376); assay type: functional
# [20] = TNFa-induced NF-kB reporter signal decrease – HEK293 LMP1 reporter cells, dry powder, set 2, selectivity assay for EBV LMP1 NF-kB inhibitor project, dose response (AID 624369); assay type: functional
# Nonstructural protein 1 = Nonstructural protein 1 (Influenza A virus, UniProt Q194T2); assay type: functional, Influenza A virus (A/California/07/2009(H1N1))
# Nonstructural protein 1, sequence (Q194T2 whole entry): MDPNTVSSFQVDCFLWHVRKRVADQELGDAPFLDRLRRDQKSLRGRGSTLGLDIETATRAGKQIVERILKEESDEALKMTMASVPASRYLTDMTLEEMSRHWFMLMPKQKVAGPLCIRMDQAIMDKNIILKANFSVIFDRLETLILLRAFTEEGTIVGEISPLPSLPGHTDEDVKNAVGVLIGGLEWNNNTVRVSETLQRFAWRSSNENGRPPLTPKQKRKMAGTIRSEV
# Fructose-bisphosphate aldolase, sequence (P9WQA3 whole entry): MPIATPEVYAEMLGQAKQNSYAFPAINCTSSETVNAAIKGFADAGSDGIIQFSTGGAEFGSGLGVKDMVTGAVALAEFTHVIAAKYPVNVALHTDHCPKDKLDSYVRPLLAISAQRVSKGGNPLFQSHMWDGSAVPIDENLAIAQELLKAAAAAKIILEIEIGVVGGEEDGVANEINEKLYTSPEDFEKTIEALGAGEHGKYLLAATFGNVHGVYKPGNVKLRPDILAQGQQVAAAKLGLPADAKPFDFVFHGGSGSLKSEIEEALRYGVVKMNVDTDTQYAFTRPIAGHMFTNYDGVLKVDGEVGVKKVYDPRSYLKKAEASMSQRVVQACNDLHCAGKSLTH
# Beta-galactosidase, sequence (Q8VNN2 whole entry): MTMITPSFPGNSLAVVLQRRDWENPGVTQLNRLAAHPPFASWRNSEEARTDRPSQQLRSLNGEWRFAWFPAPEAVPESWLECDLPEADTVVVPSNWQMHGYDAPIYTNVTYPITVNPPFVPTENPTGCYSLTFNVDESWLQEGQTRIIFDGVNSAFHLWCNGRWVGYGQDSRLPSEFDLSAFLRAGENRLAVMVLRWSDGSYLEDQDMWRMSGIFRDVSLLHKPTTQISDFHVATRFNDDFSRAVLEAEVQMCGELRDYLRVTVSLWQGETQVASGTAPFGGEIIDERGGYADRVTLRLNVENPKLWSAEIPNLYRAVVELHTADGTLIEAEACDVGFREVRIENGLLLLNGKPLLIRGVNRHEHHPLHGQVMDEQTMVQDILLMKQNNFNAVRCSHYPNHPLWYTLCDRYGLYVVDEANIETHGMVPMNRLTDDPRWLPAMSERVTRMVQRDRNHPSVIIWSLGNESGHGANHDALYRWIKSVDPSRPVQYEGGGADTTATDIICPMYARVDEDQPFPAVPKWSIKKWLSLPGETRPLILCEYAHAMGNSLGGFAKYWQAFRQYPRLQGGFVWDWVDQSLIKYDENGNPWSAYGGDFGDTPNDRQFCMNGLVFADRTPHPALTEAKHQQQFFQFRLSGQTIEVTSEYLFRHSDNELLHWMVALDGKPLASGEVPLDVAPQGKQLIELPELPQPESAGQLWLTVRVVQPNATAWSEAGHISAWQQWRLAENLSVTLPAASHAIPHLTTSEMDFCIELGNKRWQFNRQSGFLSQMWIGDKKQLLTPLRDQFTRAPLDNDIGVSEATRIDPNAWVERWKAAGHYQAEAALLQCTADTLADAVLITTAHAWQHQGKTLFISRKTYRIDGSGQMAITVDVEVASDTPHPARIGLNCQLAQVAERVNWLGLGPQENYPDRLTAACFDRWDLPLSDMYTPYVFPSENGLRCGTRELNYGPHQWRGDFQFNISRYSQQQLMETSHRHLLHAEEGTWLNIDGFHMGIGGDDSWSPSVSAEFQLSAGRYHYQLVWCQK
# Protein Wnt-3a, sequence (P27467 whole entry, the tested form may be a part): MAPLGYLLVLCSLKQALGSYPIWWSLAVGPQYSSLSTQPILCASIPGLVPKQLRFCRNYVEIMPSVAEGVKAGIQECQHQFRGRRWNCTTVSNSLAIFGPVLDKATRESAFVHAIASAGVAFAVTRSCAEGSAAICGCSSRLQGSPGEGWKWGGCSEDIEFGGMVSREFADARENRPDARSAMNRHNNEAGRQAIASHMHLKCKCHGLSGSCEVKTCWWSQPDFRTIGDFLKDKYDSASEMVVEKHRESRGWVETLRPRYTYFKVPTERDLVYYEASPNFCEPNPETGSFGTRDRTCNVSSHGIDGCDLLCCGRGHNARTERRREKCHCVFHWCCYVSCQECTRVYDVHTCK
structure (smiles),measurement,setting,value
COc1ccc(CC(=O)Nc2cccc(S(=O)(=O)N3CCCCCC3)c2)cc1OC,AC50,[1],2.12 µM (active)
same,AC50,[2],3.47 µM (active)
same,AC50,[3],2.27 µM (active)
same,AC50,[4],> 70 µM (inactive)
same,AC50,[5],30 µM (active)
same,AC50,INS1,6.12 µM (active)
same,AC50,[6],> 70 µM (inactive)
same,IC50,Protein Wnt-3a,1.73 µM (active)
same,AC50,[7],7.05 µM (active)
CCOC(=O)c1c(NC(=O)c2ccco2)n(C2CCCCC2)c2nc3ccccc3nc12,EC50,Protein RecA,2.62 µM (active)
same,AC50,[8],229 µM (active)
same,CC50,Vero,> 40 µM (active)
same,IC50,[9],> 50 µM (not active)
same,IC50,[10],1.67 µM (active)
CCCCNc1c(-c2ccc(-c3ccc(C(C)=O)cc3)c(OC)c2)nc2cc(C)ccn12,IC50,Beta-galactosidase,77.5 µM (inactive)
COc1cc(C2c3cc4c(cc3C(O)C3COC(=O)C23)OCO4)cc(OC)c1OC (stereo not drawn),IC50,cells [11],> 67.5 µM (inactive)
same,IC50,[12],> 67.5 µM (inactive)
COc1cc2c(cc1OC)C(C1C(=O)CC(C)CC1=O)N(C(=O)CCl)CC2 (stereo not drawn),IC50,[10],> 9.99 µM (inactive)
COC(=O)CCCCOc1ccc2cc(C#N)c(=O)oc2c1,IC50,[13],> 100 µM (inactive)
same,IC50,[14],> 100 µM (inactive)
COCCNC(=O)c1cc(-c2cccs2)on1,AC50,[15],26 µM (active)
same,EC50,cells [16],> 350 µM (not active)
same,EC50,cells [17],70.8 µM (active)
COc1ccccc1CNC(=O)C[C@@H]1C[C@H]2c3cc(NC(=O)c4ccc5c(c4)OCO5)ccc3O[C@H]2[C@H](CO)O1,AbsAC35,[18],179.84 µM
same,AbsAC35,[19],37.67 µM
same,AbsAC35,[20],232.4 µM
c1ccc(-c2cnc(-c3ccccn3)nn2)cc1,AC50,[15],26 µM (active)
same,IC50,Nonstructural protein 1,18.9 µM (active)
